According to patent publication US20240279304A1, “DSG2 COMPOSITIONS AND METHODS” (Arvada Therapeutics, Inc., priority 2021, published 2024):

What was measured:
[1] = tested on: anti-DSG2 antibodies in sera of ARVC patients; assay: Electrochemical immunoassay, blocking of ARVC patient sera binding to DSG2 extracellular domain; parameters: species or system human; settings: fusion polypeptides 5 μg/mL; patient sera 10% (v/v); FIG. 5
Protocol: DSG2 fusion polypeptides were investigated for the ability to block the binding of anti-DSG2 antibodies in sera of ARVC patients to the DSG2 extracellular domain in an electrochemical immunoassay. The fusion polypeptides were added to a final concentration of 5 μg/mL and patient sera were used at a final concentration of 10% (v/v). The results are shown in the series of bar charts in FIG. 5, where the numbers 961, 965, 978, 986 and 964 indicate ARVC patient serum samples.
In FIG. 5, the first data series from the left is for DSG2FP #1 (described above as amino acids 49-608 of SEQ ID NO:30; Linker (IEGRMD (SEQ ID NO: 28)); amino acids 100-330 of IgG1 (SEQ ID NO: 4). The second data series from the left is for DSG2(50-602)-6×His, which is a fusion polypeptide of DSG2 amino acids 50-602 of SEQ ID NO: 1 (complete extracellular domain) to a hexahistidine peptide tag. The third data series from the left is for a combination of fusion polypeptides which includes EC1(50-155)-6×His, a fusion of DSG2 amino acids 50-155 of SEQ ID NO: 1 (EC1) to a hexahistidine peptide tag and EC2(151-268)-6×His, a fusion of DSG2 amino acids 151-268 of SEQ ID NO: 1 (EC2) to a hexahistidine peptide tag. […] It is likely that other affinity tags may be determined to be useful in alternative embodiments of DSG2 polypeptides, with examples including, but not limited to CBP, MBP, streptavidin and GST, for example. […]

[2] = Dynamic light scattering (DLS) of DSG2 fusion polypeptides; type: physicochemical; settings: average polymer distribution index
From the text: 6 candidates were compared to the reference sample.

Which “blocking activity (inhibition; 100% = complete blocking)” value [1] does the source give for “DSG2FP#1: R&D Systems DSG2 extracellular domain (49-608 of SEQ ID NO: 30); linker IEGRMD; amino acids 100-330 of IgG1” here?
Its value is “best blocking activity”.

And the PDI [2]?
The PDI was 0.33.
